From article PMC4632503, “Targeting of Helicobacter pylori thymidylate synthase ThyX by non-mitotoxic hydroxy-naphthoquinones” (Open Biology, 2015)
Read-outs that look alike come from different tables or passages of the source.

What was measured:
AGS cells [1] = test: cytotoxicity, LDH release; type: cell-based, human; conditions: for cytotoxicity: 0.78 to 50 μg ml^−1, 24 h
Method: Cytotoxicity of the 2-OH-1,4-NQ derivatives was assessed by measuring lactate dehydrogenase (LDH) release following manufacturer's instructions (Cytotoxicity Detection Kit; Roche Applied Sciences). Briefly, AGS cells (human gastric adenocarcinoma cell line; ATCC Catalog no. CRL-1739TM) were cultured in Ham's F-12 K medium containing 1% of FBS. A total of 3 × 10^4 cells were added per well in a sterile 96-well tissue culture plate. Cells were then treated with different doses of 2-OH-1,4-NQ compounds ranging from 0.78 to 50 μg ml^−1. After a 24 h incubation at 37°C (5% CO2, 90% humidity), the microplates were centrifuged at 250g for 10 min, and the supernatants were carefully removed and transferred into optically clear 96-well microplates (Greiner Bio-One). The dye solution containing iodotetrazolium chloride and sodium lactate was then added to each well to quantify the amount of LDH released into the extracellular medium. LDH was quantified by measuring the A490 using a PowerWave Microplate Spectrophotometer (BioTek).

AGS cells [2] = test: mitotoxicity, resazurin reduction; type: cell-based, human; conditions: for mitotoxicity: 0.78 to 50 μg ml^−1, 4 h treatment; for effect on mitochondrial metabolism: low concentrations, resazurin reduction
Method: Mitochondrial toxicity (mitotoxicity) was assessed by measuring resazurin (7-hydroxy-3H-phenoxazin-3-one 10-oxide) reduction by following absorption changes at 570 nm (Mitochondrial Viability Assay; Abcam). Resazurin is an indicator dye that reports on oxidation–reduction reactions taking place in the mitochondria of living cells. AGS cells (≅2.5 × 10^5cells well^−1) cultured in a DMEM galactose/glutamine-supplemented medium were seeded in sterile white-walled 96-well clear-bottom microplates and treated for 4 h with different doses of 2-OH-1,4-NQ compounds ranging from 0.78 to 50 μg ml^−1. Addition of the stain solution was followed by a further 4 h incubation at 37°C (5% CO2, 90% humidity) and A570 was measured. Rotenone, an inhibitor of the mitochondrial respiratory chain complex I, was used as a positive control.

H. pylori strain 26695 = test: MIC, broth microdilution test, strain 26695; type: cell-based; conditions: Helicobacter pylori, 26695, 24 h, read-out: minimal inhibitory concentration (MIC) strain 26695
Method: (§1) The in vitro anti-bacterial activity of 2-OH-1,4-NQ compounds was assessed against the 26695 and SS1 strains of H. pylori. DMSO was used as control in all experiments.
(§2) Disc diffusion tests were performed in triplicate, including a DMSO-only control on each plate, as specified in the electronic supplementary material. Minimal inhibitory concentrations (MICs) were determined using a broth microdilution test in 24-well microtitre plates. For test inocula, an overnight preculture of H. pylori strains 26695 and SS1 was diluted to an OD600 of approximately 0.1 and 0.5 ml of this suspension was transferred to each well. Ten microlitres of twofold serial dilutions of each compound in DMSO, ranging in concentration from 0.625 to 20 µg ml^−1, were added and the covered plates were incubated for 24 h at 37°C with orbital shaking at 140 r.p.m. under microaerophilic conditions. The MIC was determined as the lowest compound concentration resulting in full growth inhibition after 24 h of incubation. All the tests were done in triplicate, including cell-free and DMSO-only controls.

H. pylori strain SS1 = test: MIC, broth microdilution test, strain SS1; type: cell-based; conditions: Helicobacter pylori, 24 h, read-out: minimal inhibitory concentration (MIC) strain SS1
Method: as §1, §2

[3] = tolerance of orogastric treatment in infected mice; type: in vivo, NMRI mice; conditions: orogastric three times a day, 0.375 mg mouse day^−1, one week; for effect on body or stomach weight: data not shown
Method: NMRI-specific pathogen-free mice (Charles River Laboratories) were orogastrically inoculated with 10^8 CFU of the H. pylori mouse-adapted strain SS1, prepared in 100 μl of peptone broth. Four groups of six to eight mice were infected by H. pylori strain SS1. Earlier experiments have established that after one week, colonization of mice is fully established. A negative control group of five mice was inoculated with peptone broth alone and was not colonized by H. pylori. One week after infection, three groups of mice were treated orogastrically three times a day with 500 µl of either compound 010-C, 010-E or 010-I dissolved in 2% β-cyclodextrin at 0.25 mg ml^−1 (0.375 mg mouse d^−1) during one week. As a control, the fourth group of mice was treated orogastrically three times a day by the same amount of 2% β-cyclodextrin (17.6 mM), the vehicle of the compounds. […] This average size is in agreement with the average size of β-cyclodextrin particles that self-aggregate in water at a concentration of 12 mM [39]. After treatment, viable H. pylori cells, colonizing the mouse stomach, were enumerated by culture of serial dilutions of homogenized tissue on blood agar plates containing bacitracin (200 μg ml^−1) and nalidixic acid (10 μg ml^−1) as in [40].

HpThyX [4] = target: T1, HpThyX (Helicobacter pylori, UniProt O26061); test: tritium release (deprotonation) assay of [5-3H]dUMP; type: biochemical; conditions: for remaining activity at 100 µM: 20 min, read-out: inhibition against ThyX (% remaining activity relative to control); for dTMP-forming activity: quantitative tritium release assay, 100 μM compound, 10 μM ThyX enzyme
T1 construct: His6; made in house; host or cells: Escherichia coli BL21 (plasmid pGL2, pBAD promoter)
T1 sequence (O26061 whole entry): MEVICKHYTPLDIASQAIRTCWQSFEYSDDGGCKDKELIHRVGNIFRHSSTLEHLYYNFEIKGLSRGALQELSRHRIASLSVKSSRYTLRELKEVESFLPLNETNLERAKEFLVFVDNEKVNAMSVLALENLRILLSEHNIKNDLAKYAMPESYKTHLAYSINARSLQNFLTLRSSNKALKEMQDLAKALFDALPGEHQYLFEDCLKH
Method: (§3) HpThyX activity was assessed by measuring either deprotonation of [5-^3H]dUMP or NAPDH oxidation activities.
In the tritium release (deprotonation) assays, typical reactions contained 10 mM MgCl2, 10% (v/v) glycerol, 500 µM FAD, 2 mM NADPH, 1 mM CH2H4Folate and 10 mM β-mercaptoethanol in 50 mM HEPES (pH 8). Different concentrations of dUMP were also included in the reaction mixtures. The specific activity of tritiated [5-^3H]dUMP (diammonium salt) stock was 15–30 Ci mmol^−1 (Moravek Biochemicals, CA, USA). 2-OH-1,4-NQ derivatives were prepared at 100 µM in 1% DMSO. Reactions were initiated by adding the enzyme (10 µM) and were stopped after 20 min incubation at 37°C.

HpThyX [5] = target: T1, HpThyX; test: NADPH oxidation assay; type: biochemical; conditions: estimated from slope of IC50 versus dUMP concentration
Method: as §3
NADPH oxidation assays were performed at 37°C in 96-well plates (Greiner Bio-One). One hundred microlitres of reaction mixture contained HEPES 50 mM (pH 8.6), NaCl 150 mM, FAD 50 µM, β-mercaptoethanol 1.43 mM, NADPH 500 µM and 10 µM of purified HpThyX. dUMP and 2-OH-1,4-NQ concentrations were varied across 12.5–200 µM and 0.3–100 µM, respectively. Microtitre plates were prepared and transferred to the microplate reader Chameleon II (Hidex). The reactions were started by automatically injecting NADPH into individual wells and ThyX activity was determined by following a decrease in absorbance at 340 nm. A molar extinction coefficient of 6220 M^−1 cm^−1 at 340 nm (ε340) was used to quantify NADPH oxidation. Samples with added DMSO and enzyme-free reactions were used as positive and negative controls, respectively.

H. pylori 26695 = test: bactericidal activity, viable counts (CFU) in liquid culture; type: cell-based, Helicobacter pylori; conditions: exposure up to 24 h, replating on solid media
Method: To determine the bactericidal activity of C8-C1 against H. pylori, liquid BHI medium was inoculated with an overnight culture of H. pylori 26695 at an initial OD600 of 0.1. C8-C1 or chloramphenicol, used as bacteriostatic control, were added after 4 h of culture time at final concentrations of 5 and 30 µg ml^−1. To determine the viable counts of surviving bacteria (colony forming units, CFU), aliquots of culture were then plated in triplicate on blood agar plates after 3 and 24 h exposure.

[6] = semi-quantitative deprotonation assay, remaining activity, lower = stronger inhibition

SMILES | cytotoxic effect (AGS cells [1]; 25 µg ml^−1, 24 h) [%] | mitotoxicity (AGS cells [2]) | cytotoxicity (AGS cells [1]) | MIC (H. pylori strain 26695; full growth inhibition) [µg/mL] | MIC (H. pylori strain 26695; value in brackets) [µM] | effect on mitochondrial metabolism (AGS cells [2]) | MIC (H. pylori strain SS1; full growth inhibition) [µg/mL] | MIC (H. pylori strain SS1; value in brackets) [µM] | tolerance in mice [3] | effect on body or stomach weight [3] | remaining activity at 100 µM (HpThyX [4]; [6]) [%] | dTMP-forming activity (HpThyX [4]) | Ki (HpThyX [5]) [nM] | remaining activity at 100 µM (HpThyX [4]) [%] | kind of anti-microbial activity / viable cells after exposure (H. pylori 26695)
O=C1C(O)=C([C@H]2CC[C@H](c3ccc(Cl)cc3)CC2)C(=O)c2ccccc21 [atovaquone, 2-(trans-4-(4-chlorophenyl)cyclohexyl)-3-hydroxy-1,4-naphthoquinone, reference compound] | 48 ± 5 | targeted mitochondria |  |  |  |  |  |  |  |  |  |  |  |  | 
O=C1C(O)=C(Cc2ccc(F)c(C(F)(F)F)c2)C(=O)c2ccccc21 [010-E] |  | non-mitotoxic | non-cytotoxic | 5 | 14.3 | activated the mitochondrial metabolism | 5 | 14.3 | tolerated in mice | None of the aforementioned treatments affected either the body or stomach weight | 77.7 | suppressed the dTMP-forming activity |  |  | 
O=C1C(O)=C(Cc2ccco2)C(=O)c2ccccc21 [010-C] |  | non-mitotoxic | non-cytotoxic | 10 | 39.3 | activated the mitochondrial metabolism | 10 | 39.3 | tolerated in mice | None of the aforementioned treatments affected either the body or stomach weight | 76.4 | suppressed the dTMP-forming activity | 28 |  | 
O=C1C(O)=C(Cc2ccc(F)c(Cl)c2)C(=O)c2ccccc21 [010-F] |  |  |  | 10 | 31.6 |  | 5 | 15.8 |  |  | 74.5 |  |  |  | 
O=C1C(O)=C(C=Cc2ccc(F)cc2)C(=O)c2ccccc21 [010-J] |  |  |  | 2.5 | 8.49 |  | 2.5 | 8.49 |  |  | 49.7 |  |  |  | 
O=C1C(O)=C(Cc2cccs2)C(=O)c2ccccc21 [010-D] |  |  |  | 10 | 37 |  | 10 | 37 |  |  | 36.4 |  |  |  | 
O=C1C(O)=C(Cc2ccc(-c3ccc(Cl)cc3)cc2)C(=O)c2ccccc21 [007-B] |  |  |  | 10 | 26.7 |  | 10 | 26.7 |  |  | 60.2 |  |  |  | 
O=C1C(O)=C(Cc2ccc(OC(F)(F)F)cc2)C(=O)c2ccccc21 [007-C] |  |  |  | 5 |  |  | 5 |  |  |  |  |  |  | 62.5 | 
O=C(N[C@H](CO)[C@H](O)c1ccc([N+](=O)[O-])cc1)C(Cl)Cl [chloramphenicol, reference compound] |  |  |  |  |  |  |  |  |  |  |  |  |  |  | bacteriostatic
